Test [1] concerns the target IRAK1 (His-TEV-IRAK1 (194-712)) (Homo sapiens (Human), UniProt P51617). In words: IRAK1 enzymatic assay. Type of test: biochemical. Put shortly:
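Recombinant His-TEV-IRAK1 (194-712), 15 ng/well, autophosphorylation with 1 μM ATP plus [33P]ATP, 3 h at 30° C in Hepes pH 7.0 buffer with MgCl2, DTT, EGTA, BSA and Triton; compounds from 20 µM to 1 nM. The reaction was stopped with EDTA, and radioactivity was counted in streptavidin FlashPlates.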

In test [2] the test system is TLR7 induced IL-6 secretion in human mononuclear cells (PBMC's). In words: TLR7 induced IL-6 in human PBMC's. Type of test: cell-based. The note with it: Homo sapiens, PBMC, read-out: TLR7 induced IL-6 secretion in hPBMC's (IC50). Put shortly: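 Fresh or frozen healthy-donor PBMCs preincubated 30 min at 37° C. with compound (25 uM to 0.4 nM; vehicle 0.25% DMSO) in RPMI/10% HI-FBS. Stimulated with TLR7 ligand (2 uM) for 16-18 h at 37° C.; supernatant IL-6 measured by AlphaLISA.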

Test [3] concerns the target IRAK4 (Homo sapiens (Human), UniProt Q9NWZ3). In words: IRAK4 enzymatic assay. Type of test: biochemical. Put shortly:
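Recombinant His-TEV-IRAK4 (20 ng/well) phosphorylating biotinylated STK1 peptide (300 nM) with 2 μM ATP plus [^33P]ATP, 3 h at 30° C in pH 7.0 Hepes buffer with Mg2+ and Mn2+. Compounds 20 µM to 1 nM; EDTA stop, radioactivity captured on streptavidin FlashPlates.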

Counter-ions that a name gives are not always drawn.

Usually IC50 stands for the point on the concentration scale where inhibition reaches its midpoint.

Chain of IRAK4 (Q9NWZ3 whole entry): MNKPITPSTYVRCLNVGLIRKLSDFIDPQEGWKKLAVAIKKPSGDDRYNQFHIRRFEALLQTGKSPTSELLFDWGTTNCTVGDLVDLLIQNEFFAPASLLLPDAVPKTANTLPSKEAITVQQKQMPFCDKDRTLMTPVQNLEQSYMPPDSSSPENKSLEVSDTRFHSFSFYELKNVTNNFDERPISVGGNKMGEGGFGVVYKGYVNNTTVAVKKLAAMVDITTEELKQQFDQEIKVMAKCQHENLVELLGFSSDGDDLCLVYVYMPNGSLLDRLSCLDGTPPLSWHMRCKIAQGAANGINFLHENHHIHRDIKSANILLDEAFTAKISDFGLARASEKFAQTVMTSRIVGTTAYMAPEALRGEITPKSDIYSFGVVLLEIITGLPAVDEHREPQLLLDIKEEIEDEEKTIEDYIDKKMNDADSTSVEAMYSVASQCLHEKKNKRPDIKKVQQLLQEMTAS
Chain of IRAK1 (His-TEV-IRAK1 (194-712)) (P51617 194-712): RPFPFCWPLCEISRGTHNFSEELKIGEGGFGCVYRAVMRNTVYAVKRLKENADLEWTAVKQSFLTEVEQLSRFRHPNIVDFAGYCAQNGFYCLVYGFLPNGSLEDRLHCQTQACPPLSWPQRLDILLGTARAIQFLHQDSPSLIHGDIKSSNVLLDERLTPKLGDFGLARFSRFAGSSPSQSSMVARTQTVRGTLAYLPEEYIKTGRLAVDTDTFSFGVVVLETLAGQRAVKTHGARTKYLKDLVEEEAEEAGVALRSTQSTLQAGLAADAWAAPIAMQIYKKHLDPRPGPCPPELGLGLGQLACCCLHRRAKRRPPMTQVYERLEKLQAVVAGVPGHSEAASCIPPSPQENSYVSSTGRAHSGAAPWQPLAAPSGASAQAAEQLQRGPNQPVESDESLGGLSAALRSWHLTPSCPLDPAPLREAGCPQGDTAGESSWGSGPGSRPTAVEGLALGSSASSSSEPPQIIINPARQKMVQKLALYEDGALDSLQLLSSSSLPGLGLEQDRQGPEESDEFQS

On to `Cn1cc(-c2cccc(-c3ncc(-c4cnn(C)c4)c(N[C@H]4C[C@@H](CNS(C)(=O)=O)C4)n3)c2)cn1` [Example 195, N-(3-{5-(1-Methyl-1H-pyrazol-4-yl)-2-[3-(1-methyl-1H-pyrazol-4-yl)-phenyl]-pyrimidin-4-ylamino}-cyclobutylmethyl)-methanesulfonamide], for which the IC50 was less than 100 nM in test [1], 1000 to 5000 nM in test [2] and less than 100 nM in test [3].

With `Cn1cc(-c2cccc(-c3ncc(-c4cnn(C)c4)c(N4CCC(N)CC4)n3)c2)cn1` [Example 239], the IC50 in test [1], in test [2] and in test [3] was 100 to 1000 nM throughout.

With `Cn1cc(-c2cccc(-c3ncc(-c4cnn(C)c4)c(N[C@H]4CC[C@@H](N5CCOCC5)CC4)n3)c2)cn1` [Example 233], the IC50 in test [1] was 100 to 1000 nM; in test [2] it was 100 to 1000 nM; in test [3], less than 100 nM.

As for `Cc1nnc(-c2cnc(-c3cccc(-c4cnn(C)c4)c3)nc2NC2CCCN(S(C)(=O)=O)CC2)s1` (stereo not drawn) [Example 253], the 50% inhibitory concentration (IC50) was less than 100 nM in test [1], 100 to 1000 nM in test [2] and less than 100 nM in test [3].

With `Cn1cc(-c2cccc(-c3ncc(-c4ccn(C)n4)c(NCC4CNCCO4)n3)c2)cn1` (stereo not drawn) [Example 115], the IC50 in test [1] was more than 5000 nM; in test [2], 100 to 1000 nM; in test [3], 100 to 1000 nM.

As for `Cn1cc(-c2cccc(-c3ncc(-c4cnn(C)c4)c(N[C@H]4C[C@H](O)C4)n3)c2)cn1` [Example 47], the IC50 in test [1] was 1000 to 5000 nM; in test [2], more than 5000 nM; in test [3], 100 to 1000 nM.

For `Cn1cc(-c2cccc(-c3ncc(-c4cnn(C)c4)c(NCC4CCNCC4)n3)c2)cn1` [Example 7, {5-(1-Methyl-1H-pyrazol-4-yl)-2-[3-(1-methyl-1H-pyrazol-4-yl)-phenyl]-pyrimidin-4-yl}-piperidin-4-ylmethyl-amine], the IC50 in test [1] was in the range of 100 to 1000 nM; in test [2], 1000 to 5000 nM; in test [3], 100 to 1000 nM.

Consider `Cn1cc(-c2cccc(-c3ncc(-c4cnn(C)c4)c(NC[C@@H](O)CO)n3)c2)cn1` [Example 56], for which the results for the IC50 in test [1], in test [2] and in test [3] were more than 5000 nM, 1000 to 5000 nM and less than 100 nM, respectively.

For `Cn1cc(-c2cccc(-c3ncc(-c4cnn(C)c4)c(NC[C@H]4CC[C@H](O)CC4)n3)c2)cn1` [Example 156], the figures for the IC50 in test [1], in test [2] and in test [3] were 100 to 1000 nM, 100 to 1000 nM and less than 100 nM, respectively.

Turning to `COC(=O)c1nnc(-c2cnc(-c3cccc(-c4cnn(C)c4)c3)nc2NC2CCCNC2)s1` (stereo not drawn) [Example 18, 5-[2-[3-(1-Methyl-1H-pyrazol-4-yl)-phenyl]-4-(piperidin-3-ylamino)-pyrimidin-5-yl]-[1,3,4]thiadiazole-2-carboxylic Acid Methyl Ester Hydrochloride], the IC50 in test [1] was more than 5000 nM; in test [2], 100 to 1000 nM; in test [3] it was less than 100 nM.

Turning to `Cn1cc(-c2cccc(-c3ncc(-c4cnn(C)c4)c(N4CCC(CNS(C)(=O)=O)C4)n3)c2)cn1` (stereo not drawn) [Example 265], the IC50 is 100 to 1000 nM in test [1], more than 5000 nM in test [2] and less than 100 nM in test [3].

Regarding `CC(C)Nc1nc(-c2cccc(-c3cnn(C)c3)c2)ncc1-c1nnc(C(=O)N2CC[C@@H](O)C2)s1` [Example 16, ((R)-3-Hydroxy-pyrrolidin-1-yl)-(5-{4-isopropylamino-2-[3-(1-methyl-1H-pyrazol-4-yl)-phenyl]-pyrimidin-5-yl}-[1,3,4]thiadiazol-2-yl)-methanone], the figures for the IC50 in test [1], in test [2] and in test [3] were 100 to 1000 nM, 100 to 1000 nM and less than 100 nM, respectively.

Turning to `Cc1nnc(-c2cnc(-c3cccc(-c4cnn(C)c4)c3)nc2NCCNS(C)(=O)=O)s1` [Example 184], the IC50 in test [1] is 100 to 1000 nM; in test [2] it was 100 to 1000 nM; in test [3], less than 100 nM.

As for `COC(=O)c1nnc(-c2cnc(-c3cccc(-c4cnn(C)c4)c3)nc2NCC2CNC2)s1` [Example 19, 5-{4-[(Azetidin-3-ylmethyl)-amino]-2-[3-(1-methyl-1H-pyrazol-4-yl)-phenyl]-pyrimidin-5-yl}-[1,3,4]thiadiazole-2-carboxylic Acid Methyl Ester Trifluoroacetate], the results for the IC50 in test [1], in test [2] and in test [3] were more than 5000 nM, 1000 to 5000 nM and 100 to 1000 nM, respectively.

Consider `Cn1cc(-c2cccc(-c3ncc(-c4cnn(C)c4)c(NC4C5CCCC4CC(N)C5)n3)c2)cn1` (stereo not drawn) [Example 153], for which the IC50 in test [1] was 100 to 1000 nM; in test [2] it was 100 to 1000 nM; in test [3] it was less than 100 nM.

With `Cc1nnc(-c2cnc(-c3cccc(-c4cnn(C)c4)c3)nc2NCCN2CCS(=O)(=O)CC2)s1` [Example 127], the IC50 was more than 5000 nM in test [1], 100 to 1000 nM in test [2] and less than 100 nM in test [3].

Regarding `Cn1cc(-c2cccc(-c3ncc(-c4cnn(C)c4)c(NC4CC(F)C4)n3)c2)cn1` (stereo not drawn) [Example 50], the IC50 in test [1] is 100 to 1000 nM; in test [2], 1000 to 5000 nM; in test [3], 100 to 1000 nM.

In the case of `Cc1nnc(-c2cnc(-c3cccc(-c4cnn(C)c4)c3)nc2NCC(O)C(F)(F)F)s1` (stereo not drawn) [Example 216], the IC50 is 100 to 1000 nM in test [1], 100 to 1000 nM in test [2] and less than 100 nM in test [3].

For the molecule `Cn1cc(-c2cccc(-c3ncc(-c4ccn(C)n4)c(NC4(CO)COC4)n3)c2)cn1` [Example 93], the IC50 in test [1] was 100 to 1000 nM; in test [2], 100 to 1000 nM; in test [3] it was less than 100 nM.

With `Cn1cc(-c2cccc(-c3ncc(-c4cnn(C)c4)c(N[C@H]4CC[C@@H](O)CC4)n3)c2)cn1` [Example 221], the IC50 in test [1] is 100 to 1000 nM; in test [2], 100 to 1000 nM; in test [3], less than 100 nM.

Regarding `CC(C)Nc1cc(-c2cccc(-c3cnn(C)c3)n2)ncc1-c1nnc(C(=O)N2CC[C@@H](O)C2)s1` [Example 22, ((R)-3-Hydroxy-pyrrolidin-1-yl)-{5-[4-isopropylamino-6′-(1-methyl-1H-pyrazol-4-yl)-[2,2′]bipyridinyl-5-yl]-[1,3,4]thiadiazol-2-yl}-methanone], the IC50 was 100 to 1000 nM in test [1], 100 to 1000 nM in test [2] and less than 100 nM in test [3].

`Cn1cc(-c2cccc(-c3ncc(-c4cnn(C)c4)c(NCCCO)n3)c2)cn1` [Example 35]: the IC50 was 100 to 1000 nM in test [1], 1000 to 5000 nM in test [2] and 100 to 1000 nM in test [3].

Take `Cn1cc(-c2cccc(-c3ncc(-c4cnn(C)c4)c(N[C@H]4C[C@@H](N)C4)n3)c2)cn1` [Example 62]: the half-maximal inhibitory concentration (IC50) in test [1] lay within 1000 to 5000 nM; in test [2] it was 1000 to 5000 nM; in test [3], 100 to 1000 nM.

`Cn1cc(-c2cccc(-c3ncc(-c4cnn(C)c4)c(N[C@H]4C[C@@H](O)C4)n3)c2)cn1` [Example 46]: the IC50 in test [1] is 100 to 1000 nM; in test [2], more than 5000 nM; in test [3] it was 100 to 1000 nM.

Regarding `Cn1cc(-c2cccc(-c3ncc(-c4cnn(C)c4)c(NC4CC5CCC4N5S(C)(=O)=O)n3)c2)cn1` (stereo not drawn) [Example 199], the IC50 is 100 to 1000 nM in test [1], 100 to 1000 nM in test [2] and less than 100 nM in test [3].

`Cn1cc(-c2cccc(-c3ncc(-c4cnn(C)c4)c(NC4CC5(CCN(S(C)(=O)=O)C5)C4)n3)c2)cn1` (stereo not drawn) [Example 169]: the IC50 in test [1] is 100 to 1000 nM; in test [2] it was more than 5000 nM; in test [3], less than 100 nM.

Turning to `Cn1cc(-c2cccc(-c3ncc(-c4cnn(C)c4)c(NC4CC5(CC(N)C5)C4)n3)c2)cn1` (stereo not drawn) [Example 65], the results for the half-maximal inhibitory concentration (IC50) in test [1], in test [2] and in test [3] were 100 to 1000 nM, 100 to 1000 nM and less than 100 nM, respectively.

Regarding `Cn1cc(-c2cccc(-c3ncc(-c4cnn(C)c4)c(NC4CCC(CN)CC4)n3)c2)cn1` (stereo not drawn) [Example 194], the IC50 was 100 to 1000 nM in test [1], 100 to 1000 nM in test [2] and less than 100 nM in test [3].

Turning to `Cn1cc(-c2cccc(-c3ncc(-c4cnn(C)c4)c(N[C@@H]4CCCC[C@H](O)[C@@H]4O)n3)c2)cn1` [Example 289, (1S,2R,3R)-3-{5-(1-Methyl-1H-pyrazol-4-yl)-2-[3-(1-methyl-1H-pyrazol-4-yl)-phenyl]-pyrimidin-4-ylamino}-cycloheptane-1,2-diol], the results for the IC50 in test [1], in test [2] and in test [3] were more than 5000 nM, 100 to 1000 nM and less than 100 nM, respectively.

As to `Cn1cc(-c2cccc(-c3ncc(-c4cnn(C)c4)c(NCCCS(C)(=O)=O)n3)c2)cn1` [Example 213], the IC50 in test [1] was less than 100 nM; in test [2], 100 to 1000 nM; in test [3], less than 100 nM.

For `Cn1cc(-c2cccc(-c3ncc(-c4cnn(C)c4)c(N[C@H]4CCCC[C@@H](O)[C@H]4O)n3)c2)cn1` (stereo in doubt) [Example 248], the IC50 in test [1] was 100 to 1000 nM; in test [2], 100 to 1000 nM; in test [3], less than 100 nM.

With `Cn1cc(-c2cccc(-c3ncc(-c4cnn(C)c4)c(N4C[C@H](N)CC(F)(F)C4)n3)c2)cn1` [Example 283, (R)-5,5-Difluoro-1-{5-(1-methyl-1H-pyrazol-4-yl)-2-[3-(1-methyl-1H-pyrazol-4-yl)-phenyl]-pyrimidin-4-yl}-piperidin-3-ylamine], the IC50 in test [1], in test [2] and in test [3] was 1000 to 5000 nM throughout.

Consider `Cn1cc(-c2cccc(-c3ncc(-c4cnn(C)c4)c(N[C@H]4C[C@@H](S(C)(=O)=O)C4)n3)c2)cn1` [Example 49], for which the IC50 in test [1] was 100 to 1000 nM; in test [2] it was more than 5000 nM; in test [3], 100 to 1000 nM.

These data come from patent US9790221B2, “Heteroaryl compounds as IRAK inhibitors and uses thereof” (Merck Patent GmbH, priority 2014, dated 2017).
